Data taken from ChEMBL document CHEMBL1122060, “Synthesis and some pharmacological properties of Z-Tyr(SO3H)-Met-Gly-Trp-Met-Asp(Phe-NH2)-OH, a 32-beta-aspartyl analogue of cholecystokinin (pancreozymin) 27-33” (1982).
*1 amine or outer side, *2 acyl side, *3 side chain or, on linkers, in order; H or OH if unused. Where a SMILES comes first, the peptide text is derived from it. [ ]: non-standard residue; d: D form. βAsp = O=C(O)[C@H](CC(=O)[*:2])N[*:1]

What was measured:
Format in all cases: functional
Felis catus [1] = organism: Felis catus; test: Pancreatic response measured as optical density of the pancreatic juice secreted 30 minutes following injection of 2 ug and diluted to 25 mL with physiological saline.
Felis catus [2] = organism: Felis catus; test: Pancreatic response measured as optical density of the pancreatic juice secreted 30 minutes following injection of 1 ug and diluted to 25 mL with physiological saline.
Felis catus [3] = organism: Felis catus; test: Pancreatic response measured as optical density of the pancreatic juice secreted 30 minutes following injection of 0.5 ug and diluted to 25 mL with physiological saline.

SMILES: CSCC[C@H](NC(=O)[C@H](Cc1c[nH]c2ccccc12)NC(=O)CNC(=O)[C@H](CCSC)NC(=O)[C@@H](N)Cc1ccc(O)cc1)C(=O)N[C@@H](CC(=O)N[C@@H](Cc1ccccc1)C(N)=O)C(=O)O (H-YMGWM[βAsp]F-NH2)
- Pancreatic response (Felis catus [1]): 1.47
- Pancreatic response (Felis catus [2]): 0.97
- Pancreatic response (Felis catus [3]): 0.46
